From patent US20050112573A1, “Method of detecting toxic substance” (priority 2001, published 2005)

System: yeast genes (level of expressed mRNA)
Test: DNA chip analysis of expressed mRNA of yeast genes after 2 h culture with a toxic chemical substance
Type: cell-based, Saccharomyces cerevisiae S288C
Summary of the method: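 Values are treated-to-control fluorescence ratios from a whole-yeast-genome DNA chip (65° C, over 12 h hybridization) using Cy3/Cy5-labelled cDNA from mRNA. Log-phase S288C cells in YPD at 25° C were exposed 2 h to a toxicant at sublethal, growth-inhibiting concentration.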

HgCl2 [(3)]
The level of expressed mRNA in the presence of chemical substance/ (yeast gene YAL053W, ratio to control without chemical): 1.3 | The level of expressed mRNA in the presence of chemical substance/The level of expressed mRNA in the absence of chemical substance (yeast gene YAR010C): 1.2 | The level of expressed mRNA in the presence of chemical substance/The level of expressed mRNA in the absence of chemical substance (yeast gene YBL005W-A): 0.5 | The level of expressed mRNA in the presence of chemical substance/The level of expressed mRNA in the absence of chemical substance (yeast gene YBL041W): 0.9 | The level of expressed mRNA in the presence of chemical substance/The level of expressed mRNA in the absence of chemical substance (yeast gene YBL043W): 1.1 | The level of expressed mRNA in the presence of chemical substance/ (yeast gene YBL048W, ratio to control without chemical substance, 2 h culture): 2.3 | The level of expressed mRNA in the presence of chemical substance/The level of expressed mRNA in the absence of chemical substance (yeast gene YBL078C): 1.3 | The level of expressed mRNA in the presence of chemical substance/ (yeast gene YBL107C, ratio to control without chemical substance, 2 h culture): 0.4 | The level of expressed mRNA in the presence of chemical substance/in the absence of chemical substance (yeast gene YBR036C): 1.8 | The level of expressed mRNA in the presence of chemical substance/The level of expressed mRNA in the absence of chemical substance (yeast gene YBR214W): 5.7 | The level of expressed mRNA in the presence of chemical substance/in the absence of chemical substance (yeast gene YBR298C): 1.6 | The level of expressed mRNA in the presence of chemical substance/The level of expressed mRNA in the absence of chemical substance (yeast gene YCL020W): 0.5 | The level of expressed mRNA in the presence of chemical substance/The level of expressed mRNA in the absence of chemical substance (yeast gene YCL027W): 1.0 | The level of expressed mRNA in the presence of chemical substance/The level of expressed mRNA in the absence of chemical substance (yeast gene YCR004C): 12.0 | The level of expressed mRNA in the presence of chemical substance/The level of expressed mRNA in the absence of chemical substance (yeast gene YCR071C): 0.9 | The level of expressed mRNA in the presence of chemical substance/The level of expressed mRNA in the absence of chemical substance (yeast gene YCR088W): 1.2 | The level of expressed mRNA in the presence of chemical substance/The level of expressed mRNA in the absence of chemical substance (yeast gene YDL008W): 1.0 | The level of expressed mRNA in the presence of chemical substance/ (yeast gene YDL072C, ratio to control without chemical): 3.5 | The level of expressed mRNA in the presence of chemical substance/in the absence of chemical substance (yeast gene YDL078C): 1.2 | The level of expressed mRNA in the presence of chemical substance/ (yeast gene YDL204W, ratio to control without chemical): 4.8 | The level of expressed mRNA in the presence of chemical substance/in the absence of chemical substance (yeast gene YDL215C): 1.0 | The level of expressed mRNA in the presence of chemical substance/ (yeast gene YDL222C, ratio to control without chemical): 1.5 | The level of expressed mRNA in the presence of chemical substance/The level of expressed mRNA in the absence of chemical substance (yeast gene YDL238C): 1.1 | The level of expressed mRNA in the presence of chemical substance/The level of expressed mRNA in the absence of chemical substance (yeast gene YDR055W): 2.2 | The level of expressed mRNA in the presence of chemical substance/The level of expressed mRNA in the absence of chemical substance (yeast gene YDR084C): 1.5 | The level of expressed mRNA in the presence of chemical substance/The level of expressed mRNA in the absence of chemical substance (yeast gene YDR085C): 1.6 | The level of expressed mRNA in the presence of chemical substance/The level of expressed mRNA in the absence of chemical substance (yeast gene YDR104C): 1.2 | The level of expressed mRNA in the presence of chemical substance/The level of expressed mRNA in the absence of chemical substance (yeast gene YDR115W): 0.6 | The level of expressed mRNA in the presence of chemical substance/The level of expressed mRNA in the absence of chemical substance (yeast gene YDR259C): 0.4 | The level of expressed mRNA in the presence of chemical substance/in the absence of chemical substance (yeast gene YDR297W): 0.8 | The level of expressed mRNA in the presence of chemical substance/The level of expressed mRNA in the absence of chemical substance (yeast gene YDR315C): 1.0 | The level of expressed mRNA in the presence of chemical substance/ (yeast gene YDR330W, ratio to control without chemical substance, 2 h culture): 1.2 | The level of expressed mRNA in the presence of chemical substance/The level of expressed mRNA in the absence of chemical substance (yeast gene YDR358W): 0.7 | The level of expressed mRNA in the presence of chemical substance/in the absence of chemical substance (yeast gene YDR387C): 1.2 | The level of expressed mRNA in the presence of chemical substance/The level of expressed mRNA in the absence of chemical substance (yeast gene YDR388W): 1.2 | The level of expressed mRNA in the presence of chemical substance/ (yeast gene YDR411C, ratio to control without chemical substance, 2 h culture): 1.8 | The level of expressed mRNA in the presence of chemical substance/The level of expressed mRNA in the absence of chemical substance (yeast gene YDR432W): 1.0 | The level of expressed mRNA in the presence of chemical substance/The level of expressed mRNA in the absence of chemical substance (yeast gene YDR481C): 1.3 | The level of expressed mRNA in the presence of chemical substance/The level of expressed mRNA in the absence of chemical substance (yeast gene YDR510W): 1.5 | The level of expressed mRNA in the presence of chemical substance/ (yeast gene YDR511W, ratio to control without chemical substance, 2 h culture): 0.9 | The level of expressed mRNA in the presence of chemical substance/ (yeast gene YDR545W, ratio to control without chemical substance, 2 h culture): 0.6 | The level of expressed mRNA in the presence of chemical substance/ (yeast gene YEL001C, ratio to control without chemical): 1.4 | The level of expressed mRNA in the presence of chemical substance/The level of expressed mRNA in the absence of chemical substance (yeast gene YEL042W): 1.7 | The level of expressed mRNA in the presence of chemical substance/The level of expressed mRNA in the absence of chemical substance (yeast gene YEL066W): 1.5 | The level of expressed mRNA in the presence of chemical substance/ (yeast gene YER004W, ratio to control without chemical substance, 2 h culture): 1.9 | The level of expressed mRNA in the presence of chemical substance/ (yeast gene YER035W, ratio to control without chemical substance, 2 h culture): 1.6 | The level of expressed mRNA in the presence of chemical substance/The level of expressed mRNA in the absence of chemical substance (yeast gene YER039C): 1.0 | The level of expressed mRNA in the presence of chemical substance/ (yeast gene YER079W, ratio to control without chemical substance, 2 h culture): 1.9 | The level of expressed mRNA in the presence of chemical substance/ (yeast gene YER106W, ratio to control without chemical): 1.3 | The level of expressed mRNA in the presence of chemical substance/The level of expressed mRNA in the absence of chemical substance (yeast gene YER107C): 1.0 | The level of expressed mRNA in the presence of chemical substance/The level of expressed mRNA in the absence of chemical substance (yeast gene YER130C): 0.5 | The level of expressed mRNA in the presence of chemical substance/ (yeast gene YER158C, ratio to control without chemical substance, 2 h culture): 0.9 | The level of expressed mRNA in the presence of chemical substance/ (yeast gene YER163C, ratio to control without chemical substance, 2 h culture): 1.2 | The level of expressed mRNA in the presence of chemical substance/ (yeast gene YER175C, ratio to control without chemical substance, 2 h culture): 1.3 | The level of expressed mRNA in the presence of chemical substance/ (yeast gene YFL006W, ratio to control without chemical substance, 2 h culture): 1.6
